In patent publication US20050214285A1, “Epitopes or mimotopes derived from the C-epsilon-3 or C-epsilon-4 domains of IgE, antagonists thereof, and their therapeutic uses” (SmithKline Beecham Biologicals, s.a. and Peptide …, priority 1999, published 2005):

Key:
[1] = system: PTmAb0011; assay: Phage display ranking of peptide ligands for PTmAb0011; format: binding, mouse; settings: for Rank (ECL) PTmAb0011: primary phage display biopannings (Table 7); for PTmAb Rank 0011: IgEC67 mutants (Table 8)
Description: (§1) Phage display libraries were used to map the binding sites of the monoclonal antibodies using three different phage libraries, displaying either the XCX15, XCX10 or XAX10 peptide sequence (where X is any amino acid) at the N-terminus of the phage gVIIIp. Tables 6 and 7 show the results of selecting for peptide ligands with the anti human IgE monoclonal antibodies […]. […]
(§2) This involved a DNA sub-cloning transfer from the major coat protein (gVIIIp) filamentous phage display vector to a lower copy number minor phage coat protein (gIIIp) display vector with a random PCR step. […] Included in the tables are ranking orders and also BIAcore affinities where available.

[2] = system: PTmAb0005; assay: Phage display ranking of peptide ligands for PTmAb0005; format: binding; settings: for PTmAb Rank 0005: IgEC67 mutants (Table 8); for Rank (ECL) PTmAb0005: primary phage display biopannings (Table 6); for Rel. Rank A / Rel. Rank B: IgEC67-8 mutants (Table 9)
Description: as §1
This was performed by introducing random mutations by PCR mutagenesis and sub-cloning into the Fuse 5 vector for minor filamentous phage protein gIIIp display. These, and other results, confirmed the importance of the amino acids within IgEC67 which aligned with the Cε2 epitope. […] Mutations in other sites had little effect on the affinity to PTmAb0005.
as §2

TCLVDRQESDVC [EED50]
Rank (ECL) PTmAb0011 [1]: 6

NCQDQMLREDAGCWSKI [EEC40A]
Rank (ECL) PTmAb0011 [1]: 80

ADGAACFMNKQMADLELCPRVAAEA [IgEC67-2]
PTmAb Rank 0011 [1]: 1.8 | PTmAb Rank 0005 [2]: 3.2

GCQVGELVWCRE [EED134]
Rank (ECL) PTmAb0011 [1]: 14

GCPTWPRVGDHC [EED36]
Rank (ECL) PTmAb0011 [1]: 52

HCEEPEYSPATRVFCGR [EEC51/48/53]
Rank (ECL) PTmAb0011 [1]: 75

ADGAGCFMNKQMADLELCPRTAAEA [IgEC67-1]
PTmAb Rank 0011 [1]: 2.2 | PTmAb Rank 0005 [2]: 4.1

ADGAGCFMNKQLADPELCPREAEEA [IgEC67-4]
PTmAb Rank 0011 [1]: 1.3 | PTmAb Rank 0005 [2]: 2.4

WCLEPECAPGLL [EED38]
Rank (ECL) PTmAb0011 [1]: 330

SCQGREVRRECW [EED183]
Rank (ECL) PTmAb0011 [1]: 596

ADGAGCFMNKQQADLELCPRGAAEA [IgEC67-14]
PTmAb Rank 0011 [1]: 0.9 | PTmAb Rank 0005 [2]: 1.2

ADGAGCFMNKQLADLELCPREAAEA [IgEC67-7]
PTmAb Rank 0011 [1]: 1 | PTmAb Rank 0005 [2]: 1

DCEEPMCSPVLLQKLKP [EEC17/47/25]
Rank (ECL) PTmAb0011 [1]: 147

ECPRWPLMGDGC [EED139]
Rank (ECL) PTmAb0011 [1]: 26

HCCRIDREVSGA [ESB24]
Rank (ECL) PTmAb0005 [2]: 0

ADGAGCFINMQMADQELCPRAAAEA [Peptide 1-3, IgEC67-8 mutant clone]
Rel. Rank A [2]: 1.73 | Rel. Rank B [2]: 1.31

ECRGPNMQMQDHCPTTD [IgEC9]
Rank (ECL) PTmAb0005 [2]: 10

CCRADFEVGNGG [ESD15]
Rank (ECL) PTmAb0005 [2]: 0

ADGAGCFISPQLADWKRCMREAAEA [6-9,5-1,6-2,6-8,6-4]
Rel. Rank A [2]: 1.53 | Rel. Rank B [2]: 1.19

ADGAGCFMNNQLADWELCPRAAAEA [IgEC67-6]
PTmAb Rank 0011 [1]: 1.6 | PTmAb Rank 0005 [2]: 1.9

FCPEPICSPPLSRMTLS [EEC147]
Rank (ECL) PTmAb0011 [1]: 883

ADGAECFINRQMADLELCGREAAEA [Peptide 4-4, IgEC67-8 mutant clone]
Rel. Rank A [2]: 0.69 | Rel. Rank B [2]: 1.03

ECNQNLSGSLRHVDLNC [EEC40]
Rank (ECL) PTmAb0011 [1]: 547

ADGAGCSIHRQMADWERCLREGAEA [Peptide 6-10]
Rel. Rank A [2]: 0.91 | Rel. Rank B [2]: 0.69

ADGAGCFINKQMADLELCPSQAAEA [Peptide 4-9, IgEC67-8 mutant clone]
Rel. Rank A [2]: 1.38 | Rel. Rank B [2]: 1.70

CCMTDDPMDPNSTWAIR [ESC12]
Rank (ECL) PTmAb0005 [2]: 0

ADGAGCFINNQMADLELCPRGGAEA [Peptide 1-11, IgEC67-8 mutant clone]
Rel. Rank A [2]: 1.45 | Rel. Rank B [2]: 1.32

CCKSDIPSPVTQFNTMK [IgEC64]
Rank (ECL) PTmAb0005 [2]: 0

ADGAGCFINRQLADMELCSRGAAEA [2-11,2-4,2-10,2-7, IgEC67-8 mutant clone]
Rel. Rank A [2]: 0.79 | Rel. Rank B [2]: 1.39

DCVVDGDRLVCL [EED34/104]
Rank (ECL) PTmAb0011 [1]: 3

VCDECVSRELAL [EED35/153/164]
Rank (ECL) PTmAb0011 [1]: 118

ACFSRNGQVTDVPHSCY [EEC41]
Rank (ECL) PTmAb0011 [1]: 31

ADGAGCFINKQMADWELCPREAAEA [Peptide 5-10, IgEC67-8 mutant clone]
Rel. Rank A [2]: 1.05 | Rel. Rank B [2]: 1.83

CCMSDTPDISRLPVPDS [IgEC72]
Rank (ECL) PTmAb0005 [2]: 0

ADGAGCFINRQMADPELCPREAAEA [Peptide 5-11, IgEC67-8 mutant clone]
Rel. Rank A [2]: 1.09 | Rel. Rank B [2]: 1.97

VCPPGWKNLGCN [EED51]
Rank (ECL) PTmAb0011 [1]: 0

SCAPSGDCGYKG [EED18/47/48]
Rank (ECL) PTmAb0011 [1]: 31

ADGAGCFINNQMADLELCPREAAEA [Peptide 5-2, IgEC67-8 mutant clone]
Rel. Rank A [2]: 1.04 | Rel. Rank B [2]: 1.24

ADGAGCFIEKQMADMELCQARAAEA [Peptide 1-8, IgEC67-8 mutant clone]
Rel. Rank A [2]: 1.08 | Rel. Rank B [2]: 1.32

CCLSDDAPTLPVRR [IgEC75]
Rank (ECL) PTmAb0005 [2]: 0

YCPKYPLEGDCLLDNDY [EEC116]
Rank (ECL) PTmAb0011 [1]: 4

VCDECVSRELAL [EED35/53/164]
Rank (ECL) PTmAb0011 [1]: 330

AENDQMVDWEI [SB21/33/31]
Rank (ECL) PTmAb0005 [2]: 0

RCDQQLPRDSYTFCMMS [EEC115/3/48]
Rank (ECL) PTmAb0011 [1]: 438

NCNDNPMLDCMPAWSS [EEC5]
Rank (ECL) PTmAb0011 [1]: 0

CCESDIPLNELHALADP [IgEC70]
Rank (ECL) PTmAb0005 [2]: 0

DCLSKGQMADLC [EED147/173]
Rank (ECL) PTmAb0011 [1]: 281

TCGQSELRCASLETHHV [EEC55]
Rank (ECL) PTmAb0011 [1]: 0

HCQQVFFPQDYLWCQRG [EEC36]
Rank (ECL) PTmAb0011 [1]: 158

QIDRQITDTLL [ESB15]
Rank (ECL) PTmAb0005 [2]: 0

RGRNQIMDLEI [ESB29/36]
Rank (ECL) PTmAb0005 [2]: 0

CCEVDDFPTHHPGWTLR [ESC4]
Rank (ECL) PTmAb0005 [2]: 0

QCVRDGTRKVCM [EED33]
Rank (ECL) PTmAb0011 [1]: 7

ADGAGCFINKQMADLELCPARAAEA [Peptide 1-7, IgEC67-8 mutant clone]
Rel. Rank A [2]: 0.91 | Rel. Rank B [2]: 1.25

CAPGMGCWESVK [ESB13]
Rank (ECL) PTmAb0005 [2]: 0

MCQGWEIVSECW [EED57]
Rank (ECL) PTmAb0011 [1]: 0

CQAMDAEILNQV [ESB12]
Rank (ECL) PTmAb0005 [2]: 0

RCQSARVVPECW [EED131/138/102]
Rank (ECL) PTmAb0011 [1]: 32

CCVMDIEVRGSA [ESD14]
Rank (ECL) PTmAb0005 [2]: 0

ADGAGCFKNKQMVDSELCARQAAEA [Peptide 1-16, IgEC67-8 mutant clone]
Rel. Rank A [2]: 1.14 | Rel. Rank B [2]: 1.17

RCEQGALRCVGE [EED41/56]
Rank (ECL) PTmAb0011 [1]: 0

ADGAGCFINKQMADLELCRREAGEA [2-9,2-6, IgEC67-8 mutant clone]
Rel. Rank A [2]: 1.19 | Rel. Rank B [2]: 1.54

ADGAGCFINKQMADLELCPREAAEA [2-8,1-13,4-11,1-14, IgEC67-8 sub-library clone]
Rel. Rank A [2]: 1.00 | Rel. Rank B [2]: 1.00

CCVDDTPNSGLAMRVSK [ESC1]
Rank (ECL) PTmAb0005 [2]: 0

CCMADQELDLGHNAANA [ESC20]
Rank (ECL) PTmAb0005 [2]: 0

GCPMWPQPDDEC [EED132]
Rank (ECL) PTmAb0011 [1]: 28

KCPTYPKPNDRCLWPVP [EEC135]
Rank (ECL) PTmAb0011 [1]: 19
